According to patent publication US6566365B1, “Method for the treatment of Flaviviridea viral infection using nucleoside analogues” (BioChem Pharma Inc., priority 1999, dated 2003):

Key:
[1] = target: T1, HCV RNA-dependent RNA polymerase (NS5B protein) (Hepatitis C virus genotype 1b, UniProt P26663); assay: In vitro HCV RNA-dependent RNA polymerase assay, triphosphate form of guanosine analogues (polyC/oligoG or heteropolymeric RNA template, [32P]-GTP incorporation); assay type: biochemical, HCV-Bk strain; conditions: purified recombinant NS5B; for inhibition at 50 µM: @50 μM compound
T1 construct: The cDNA encoding the entire NS5B protein of HCV-Bk strain, genotype 1b; added initiator Met (ATG introduced before the NS5B coding region) (N); made in house; host or cells: Sf9 insect cells, recombinant baculovirus BacNS5B (pBlueBacII)
T1 sequence (P26663 2420-3010): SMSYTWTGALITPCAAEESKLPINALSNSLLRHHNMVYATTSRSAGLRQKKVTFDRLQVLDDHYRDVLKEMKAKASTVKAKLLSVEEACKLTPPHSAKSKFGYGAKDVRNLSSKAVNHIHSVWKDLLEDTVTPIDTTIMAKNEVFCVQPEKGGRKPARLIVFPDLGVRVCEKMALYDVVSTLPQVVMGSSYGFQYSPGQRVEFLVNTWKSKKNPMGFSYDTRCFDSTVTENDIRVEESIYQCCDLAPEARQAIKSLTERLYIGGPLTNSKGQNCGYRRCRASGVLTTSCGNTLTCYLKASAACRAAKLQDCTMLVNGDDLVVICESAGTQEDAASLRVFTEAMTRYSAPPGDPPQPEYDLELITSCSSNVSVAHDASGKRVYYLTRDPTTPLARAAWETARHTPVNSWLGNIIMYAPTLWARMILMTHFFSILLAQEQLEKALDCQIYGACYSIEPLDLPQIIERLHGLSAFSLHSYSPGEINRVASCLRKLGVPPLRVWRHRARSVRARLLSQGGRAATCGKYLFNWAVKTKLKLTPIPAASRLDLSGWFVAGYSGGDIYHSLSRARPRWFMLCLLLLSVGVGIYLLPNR
Description: (§1) Compounds were evaluated using an in vitro polymerase assay containing purified recombinant HCV RNA-dependent RNA polymerase (NS5B protein). HCV NS5B was expressed in insect cells using a recombinant baculovirus as vector. The experimental procedures used for the cloning, expression and purification of the HCV NS5B protein are described bellow. Follows, are details of the RNA-dependent RNA polymerase assays used to test the compounds.
(§2) The cDNA encoding the entire NS5B protein of HCV-Bk strain, genotype 1b, was amplified by PCR using a plasmid containing a cDNA version of the full-length HCV genome as template. The oligonucleotides used to amplify this HCV region were designed to introduce a NheI site followed by an ATG at the 5′ end of the NS5B coding region as well as a BamHI site at the 3′end immediately downstream of the translation stop codon. The amplified sequence, of 1.8 kb, was digested with NheI and BamHI and ligated to a predigested pBlueBacII plasmid (Invitrogen). The resulting recombinant plasmid was designated pBac/NS5B. Sf9 cells were co-transfected with 3 μg of pBac/NS5B, together with 1 μg of linearized baculovirus DNA (Invitrogen), as described in the manufacturer's protocol. Following two rounds of plaque purification, an NS5B-recombinant baculovirus, BacNS5B, was isolated. The presence of the recombinant NS5B protein was determined by western blot analysis (Harlow and Lane, 1988) of BacNS5B-infected Sf9 cells, using a HCV NS5B specific rabbit polyclonal antiserum (anti-NS5B). Infections of Sf9 cells with this plaque purified virus were performed in one-liter spinner flasks at a cell density of 1.2×10^6 cells/ml and a multiplicity of infection of 5.
(§3) Sf9 cells were infected as described above. Sixty hours post-infection, cells were harvested then washed twice with phosphate buffer saline (PBS). Total proteins were solubilized as described in Lohmann et al. (1997) with some modifications. In brief, proteins were extracted in three steps, S1, S2, S3, using lysis buffers (LB) I, LB II and LB III (Lohmann et al, 1997). The composition of LBII was modified to contain 0.1% triton X-100 and 150 mM NaCl to reduce the amount of solubilized NS5B protein at this step. In addition, sonication of cell extracts was avoided throughout the protocol to preserve the integrity of the protein structure.
Soluble NS5B protein in the S3 fraction was diluted to lower the NaCl concentration to 300 mM, then it incubated batchwise with DEAE sepharose beads (Amersham-Pharmacia) for 2 hrs at 4° C., as described by Behrens et al. (1996). Unbound material was cleared by centrifugation for 15 min at 4° C., at 25000 rpm using a SW41 rotor (Beckman). […] Eluted fractions were analyzed by SDS-PAGE and western blotting. […]

[2] = target: T1, HCV RNA-dependent RNA polymerase (NS5B protein); assay: In vitro HCV RNA-dependent RNA polymerase assay, triphosphate form of cytosine analogues (polyrI/oligodC or heteropolymeric RNA template, [32P]-CTP incorporation); assay type: biochemical, HCV-Bk strain; conditions: purified recombinant NS5B; for inhibition at 50 µM: @50 μM compound; for inhibition at 100 µM: @100 μM compound
Description: as §1, §2, §3
Soluble NS5B protein in the S3 fraction was diluted to lower the NaCl concentration to 300 mM, then it incubated batchwise with DEAE sepharose beads (Amersham-Pharmacia) for 2 hrs at 4° C., as described by Behrens et al. (1996). Unbound material was cleared by centrifugation for 15 min at 4° C., at 25000 rpm using a SW41 rotor (Beckman). The supernatant was further diluted to lower the NaCl concentration to 200 mM and subsequently loaded, with a flow rate of 1 ml/min, on a 5 ml HiTrap® heparin column (Amersham-Pharmacia) connected to an FPLC® system (Amersham-Pharmacia). Bound proteins were eluted in 1 ml fractions, using a continuous NaCl gradient of 0.2 to 1 M, over a 25 ml volume. NS5B-containing fractions were identified by sodium dodecyl sulfate polyacrylamide gel electrophoresis (SDS-PAGE), followed by western blotting using the anti-NS5B antiserum at a dilution of 1:2000. Positive fractions were pooled and the elution buffer was exchanged against a 50 mM NaPO4 pH 7.0, 20% glycerol, 0.5% triton X-100 and 10 mM DTT, using a PD-10 column (Amersham-Pharmacia). The sample was then loaded onto a 1 ml HiTrap® SP column (Amersham-Pharmacia), with a flow rate of 0.1 ml/min. Bound proteins were eluted using a continuous 0 to 1 M NaCl gradient over a 15 ml volume. Eluted fractions were analyzed by SDS-PAGE and western blotting. Alternatively, proteins were visualized, following SDS-PAGE, by silver staining using the Silver Stain Plus kit (BioRad) as described by the manufacturer.
RdRp assays were conducted using either homopolymeric template/primers or in vitro transcribed RNA templates. […]

SMILES: Nc1nc2c(ncn2[C@H]2CO[C@@H](COP(=O)(O)OP(=O)(O)OP(=O)(O)O)O2)c(=O)[nH]1 (single isomer, unassigned) [13(-) triphosphate, (−)-triphosphate-cis-2-hydroxymethyl-4-(guanin-9′-yl)-1,3-dioxolane]
- inhibition at 50 µM [1]: 82%
- IC50 [1]: 10 µM

SMILES: Nc1ccn([C@H]2CO[C@@H](COP(=O)(O)OP(=O)(O)OP(=O)(O)O)O2)c(=O)n1 (single isomer, unassigned) [COMPOUND#22(+), (+)-triphosphate-cis-2-hydroxymethyl-4-(cytosin-1′-yl)-1,3-dioxolane]
- inhibition at 50 µM [2]: 85%
- IC50 [2]: 7.7 µM

SMILES: Nc1nc(=O)n([C@@H]2CO[C@H](COP(=O)(O)OP(=O)(O)OP(=O)(O)O)O2)cc1F (single isomer, unassigned) [COMPOUND#23(−), (−)-triphosphate-cis-2-hydroxymethyl-4-(5′-fluorocytosin-1′-yl)-1,3-dioxolane]
- inhibition at 100 µM [2]: 81%
- IC50 [2]: 16 µM

SMILES: Nc1nc(NC2CC2)c2ncn([C@H]3CO[C@@H](COP(=O)(O)OP(=O)(O)OP(=O)(O)O)O3)c2n1 [9(-)-triphosphate, (−)-triphosphate-cis-2-hydroxymethyl-4-(2′-amino-6′-cyclopropylamino-purine-9′-yl)-1,3-dioxolane]
- inhibition at 100 µM ([1]; @100 μM compound): 44%

SMILES: Nc1ncnc2c1ncn2[C@H]1CO[C@@H](COP(=O)(O)OP(=O)(O)OP(=O)(O)O)O1 [14(-)-triphosphate, (−)-triphosphate-cis-2-hydroxymethyl-4-(adenin-9′-yl)-1,3-dioxolane]
- inhibition at 50 µM [1]: 6%

SMILES: Nc1ccn([C@@H]2CO[C@H](COP(=O)(O)OP(=O)(O)OP(=O)(O)O)O2)c(=O)n1 [COMPOUND#22(−), (−)-triphosphate-cis-2-hydroxymethyl-4-(cytosin-1′-yl)-1,3-dioxolane]
- inhibition at 100 µM [2]: 15%

SMILES: Nc1nc(=O)n([C@H]2CO[C@@H](COP(=O)(O)OP(=O)(O)OP(=O)(O)O)O2)cc1F [COMPOUND#23(+), (+)-triphosphate-cis-2-hydroxymethyl-4-(5′-fluorocytosin-1′-yl)-1,3-dioxolane]
- inhibition at 100 µM [2]: 57%

SMILES: Nc1ncn([C@H]2CO[C@@H](COP(=O)(O)OP(=O)(O)OP(=O)(O)O)O2)c(=O)n1 [COMPOUND#24(+), (+)-triphosphate-cis-2-hydroxymethyl-4-(5′-azacytosin-1′-yl)-1,3-dioxolane]
- inhibition at 50 µM [2]: 12%

SMILES: Nc1ncn([C@@H]2CO[C@H](COP(=O)(O)OP(=O)(O)OP(=O)(O)O)O2)c(=O)n1 [COMPOUND#24(−), (−)-triphosphate-cis-2-hydroxymethyl-4-(5′-azacytosin-1′-yl)-1,3-dioxolane]
- inhibition at 100 µM [2]: 8%

SMILES: Cc1cn([C@H]2CO[C@@H](COP(=O)(O)OP(=O)(O)OP(=O)(O)O)O2)c(=O)nc1N [COMPOUND#25(+), (+)-triphosphate-cis-2-hydroxymethyl-4-(5′-methylcytosin-1′-yl)-1,3-dioxolane]
- inhibition at 50 µM [2]: 9%

SMILES: Cc1cn([C@H]2CO[C@@H](COP(=O)(O)OP(=O)(O)OP(=O)(O)O)O2)c(=O)[nH]c1=O [COMPOUND#26(+), (+)-triphosphate-cis-2-hydroxymethyl-4-(N-1′-thiminyl)-1,3-dioxolane]
- inhibition at 100 µM [2]: 47%
